Results on 16 compounds are retold here after patent US11572362B2, “Pyrrolo[1,2-b]pyridazine derivatives” (Gilead Sciences, Inc., priority 2018, dated 2023).

One assay deals with TNFα. Briefly: IRAK4 Monocyte TNFα Cell Based Assay. The following applies: Monocyte; cryopreserved human monocytes, 50 pg/ml LPS, compound 1 hour pre-treatment, 4 hours stimulation, TNFα by TR-FRET. In short, it runs like this: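 Monocytes at 5,000 cells/well were pre-treated with compound for 1 h at 37 °C (0.1% DMSO final), then stimulated with 50 pg/ml LPS for 4 h. Secreted TNFα in supernatant was measured by TR-FRET (665/615 ratio), expressed as % control relative to unstimulated and stimulated cells.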
A general note: In TR-FRET formats the signal depends on donor and acceptor labels being close together.

The target of the next assay is IRAK4 (Homo sapiens (Human), UniProt Q9NWZ3). Briefly: IRAK4 Biochemical Assay (TR-FRET/HTRF). Conditions: IRAK4 enzyme 0.75 nM, 500 μM ATP, 2 μM STK1 peptide, 120 min. In short, it runs like this:
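Recombinant IRAK4 (0.75 nM) with 2 µM STK1 peptide and 500 µM ATP in pH 7.0 HEPES/Mg buffer; compound preincubated 15 min with enzyme and peptide, then 120 min reaction at room temperature. HTRF readout: cryptate anti-phospho-peptide antibody, 665/615 nm ratio; % inhibition against no-inhibitor and saturating-staurosporine controls.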

IRAK4, sequence (Q9NWZ3 whole entry): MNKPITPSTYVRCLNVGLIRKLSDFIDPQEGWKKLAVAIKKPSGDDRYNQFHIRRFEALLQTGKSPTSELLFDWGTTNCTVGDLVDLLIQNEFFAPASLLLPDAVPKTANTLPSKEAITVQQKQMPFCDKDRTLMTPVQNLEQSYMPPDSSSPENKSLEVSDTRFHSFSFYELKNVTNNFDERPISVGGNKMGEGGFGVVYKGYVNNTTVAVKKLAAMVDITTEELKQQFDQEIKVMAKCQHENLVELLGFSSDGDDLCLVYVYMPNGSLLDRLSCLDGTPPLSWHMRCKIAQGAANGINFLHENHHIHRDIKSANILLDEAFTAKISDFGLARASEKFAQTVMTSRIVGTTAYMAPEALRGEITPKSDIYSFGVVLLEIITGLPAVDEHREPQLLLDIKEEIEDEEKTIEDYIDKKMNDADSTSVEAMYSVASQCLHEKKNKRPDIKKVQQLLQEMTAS

The term EC50 denotes the concentration at which the effect is half-maximal. What is called IC50 is the concentration that gives 50% inhibition. Lower therefore signals inhibition by little substance. On to `Cc1nnc([C@H]2CC[C@H](Nc3cc(-c4ccc5cc(C#N)cnn45)ncc3C(=O)NC[C@@H](F)C(C)(C)O)CC2)o1` [Compound 39, 6-(3-cyanopyrrolo[1,2-b]pyridazin-7-yl)-N-((R)-2-fluoro-3-hydroxy-3-methylbutyl)-4-(((1r,4R)-4-(5-methyl-1,3,4-oxadiazol-2-yl)cyclohexyl)amino)nicotinamide], for which the EC50 in the assay with TNFα was found to be 33 nM. This compound gave an IC50 against IRAK4 of less than 1 nM.

In the case of `Cc1c([C@H]2CC[C@H](Nc3cc(-c4ccc5cc(C#N)cnn45)ncc3C(=O)NC[C@@H](F)C(C)(C)O)CC2)cnn1C(F)F` [Compound 11, 6-(3-cyanopyrrolo[1,2-b]pyridazin-7-yl)-4-(((1r,4R)-4-(1-(difluoromethyl)-5-methyl-1H-pyrazol-4-yl)cyclohexyl)amino)-N-((R)-2-fluoro-3-hydroxy-3-methylbutyl)nicotinamide], the half-maximal effective concentration (EC50) with TNFα was 17 nM. Also, at IRAK4, the IC50 is 1 nM.

`CC(C)(O)[C@H](F)CNC(=O)c1cnc(-c2ccc3cc(C#N)cnn23)cc1N[C@H]1CC[C@H](n2nc(C(F)F)cc2C(F)F)CC1` [Compound 29, 4-(((1r,4R)-4-(3,5-bis(difluoromethyl)-1H-pyrazol-1-yl)cyclohexyl)amino)-6-(3-cyanopyrrolo[1,2-b]pyridazin-7-yl)-N-((R)-2-fluoro-3-hydroxy-3-methylbutyl)nicotinamide]: in the assay on TNFα, the 50% effective concentration (EC50) stood at 381 nM. Also, 7 nM corresponded to half-maximal inhibition on IRAK4 (IC50).

Regarding `CC(C)(O)[C@H](F)CNC(=O)c1cnc(-c2ccc3cc(C#N)cnn23)cc1NC1CCC(F)(c2nnc(C(F)F)o2)CC1` (stereo partly drawn) [Compound 43, (R)-6-(3-cyanopyrrolo[1,2-b]pyridazin-7-yl)-4-((4-(5-(difluoromethyl)-1,3,4-oxadiazol-2-yl)-4-fluorocyclohexyl)amino)-N-(2-fluoro-3-hydroxy-3-methylbutyl)nicotinamide], the EC50 in the assay on TNFα worked out at 39 nM. This compound also had an IC50 against IRAK4 of less than 1 nM.

Consider `CC(C)(O)[C@H](F)CNC(=O)c1cnc(-c2ccc3cc(C#N)cnn23)cc1NC12CCC(c3nncs3)(CC1)CC2` [Compound 61, (R)-4-((4-(1,3,4-thiadiazol-2-yl)bicyclo[2.2.2]octan-1-yl)amino)-6-(3-cyanopyrrolo[1,2-b]pyridazin-7-yl)-N-(2-fluoro-3-hydroxy-3-methylbutyl)nicotinamide], for which the EC50 with TNFα was 4 nM. The IC50 on IRAK4 was less than 1 nM.

Regarding `CC(C)(O)[C@H](F)CNC(=O)c1cnc(-c2ccc3cc(C#N)cnn23)cc1N[C@H]1CC[C@H](c2nnc(C(F)F)o2)CC1` [Compound 42, 6-(3-cyanopyrrolo[1,2-b]pyridazin-7-yl)-4-(((1r,4R)-4-(5-(difluoromethyl)-1,3,4-oxadiazol-2-yl)cyclohexyl)amino)-N-((R)-2-fluoro-3-hydroxy-3-methylbutyl)nicotinamide], the EC50 with TNFα came out at 24 nM. Further, at IRAK4, the concentration for half-maximal inhibition (IC50) was less than 1 nM.

In the case of `CC(C)(O)[C@H](F)CNC(=O)c1cnc(-c2ccc3cc(C#N)cnn23)cc1N[C@H]1CC[C@H](n2nccc2C(F)F)CC1` [Compound 28, 6-(3-cyanopyrrolo[1,2-b]pyridazin-7-yl)-4-(((1r,4R)-4-(5-(difluoromethyl)-1H-pyrazol-1-yl)cyclohexyl)amino)-N-((R)-2-fluoro-3-hydroxy-3-methylbutyl)nicotinamide], the EC50 in the assay with TNFα amounted to 187 nM. This compound also displayed a concentration for half-maximal inhibition (IC50) against IRAK4 of 2 nM.

Regarding `CC(C)(O)[C@H](F)CNC(=O)c1cnc(-c2ccc3cc(C#N)cnn23)cc1NC12CCC(c3nnc(C(F)F)o3)(CC1)CC2` [Compound 62, (R)-6-(3-cyanopyrrolo[1,2-b]pyridazin-7-yl)-4-((4-(5-(difluoromethyl)-1,3,4-oxadiazol-2-yl)bicyclo[2.2.2]octan-1-yl)amino)-N-(2-fluoro-3-hydroxy-3-methylbutyl)nicotinamide], in the assay with TNFα, the EC50 stood at 19 nM. The IC50 on IRAK4 was less than 1 nM.

For the compound `CC(C)(O)[C@H](F)CNC(=O)c1cnc(-c2ccc3cc(C#N)cnn23)cc1N[C@H]1CC[C@H](c2nnc(C(F)F)s2)CC1` [Compound 53, 6-(3-cyanopyrrolo[1,2-b]pyridazin-7-yl)-4-(((1r,4R)-4-(5-(difluoromethyl)-1,3,4-thiadiazol-2-yl)cyclohexyl)amino)-N-((R)-2-fluoro-3-hydroxy-3-methylbutyl)nicotinamide], the EC50 in the assay on TNFα amounted to 27 nM. Further, on IRAK4, the 50% inhibitory concentration (IC50) was less than 1 nM.

In the case of `Cn1cc([C@H]2CC[C@H](Nc3cc(-c4ccc5cc(C#N)cnn45)ncc3C(=O)NC[C@@H](F)C(C)(C)O)CC2)cn1` [Compound 7, 6-(3-cyanopyrrolo[1,2-b]pyridazin-7-yl)-N-((R)-2-fluoro-3-hydroxy-3-methylbutyl)-4-(((1r,4R)-4-(1-methyl-1H-pyrazol-4-yl)cyclohexyl)amino)nicotinamide], the EC50 in the assay with TNFα worked out at 18 nM. In addition, at IRAK4, the midpoint of inhibition, the IC50, lay at 1 nM.

`CC(C)(O)[C@H](F)CNC(=O)c1cnc(-c2ccc3cc(C#N)cnn23)cc1N[C@H]1CC[C@H](n2cc(C(F)F)nn2)CC1` [Compound 35, 6-(3-cyanopyrrolo[1,2-b]pyridazin-7-yl)-4-(((1r,4R)-4-(4-(difluoromethyl)-1H-1,2,3-triazol-1-yl)cyclohexyl)amino)-N-((R)-2-fluoro-3-hydroxy-3-methylbutyl)nicotinamide]: the EC50 in the assay on TNFα was found to be 16 nM. This compound returned an IC50 against IRAK4 of less than 1 nM.

Regarding `CC(C)(O)[C@H](F)CNC(=O)c1cnc(-c2ccc3cc(C#N)cnn23)cc1NC1CCC(c2ccncc2)CC1` (single isomer, unassigned) [Compound 56], the concentration for a half-maximal effect (EC50) in the assay on TNFα is 221 nM. The same compound displayed an IC50 against IRAK4 of 9 nM.

For `Cc1c(C2CCC(Nc3cc(-c4ccc5cc(C#N)cnn45)ncc3C(=O)NC[C@@H](F)C(C)(C)O)CC2)cnn1C(F)F` (stereo partly drawn) [Compound 10, (R)-6-(3-cyanopyrrolo[1,2-b]pyridazin-7-yl)-4-((4-(1-(difluoromethyl)-5-methyl-1H-pyrazol-4-yl)cyclohexyl)amino)-N-(2-fluoro-3-hydroxy-3-methylbutyl)nicotinamide], the EC50 in the assay with TNFα turned out to be 55 nM. The concentration for half-maximal inhibition (IC50) against IRAK4 turned out to be 8 nM.

Consider `Cc1cnn([C@H]2CC[C@H](Nc3cc(-c4ccc5cc(C#N)cnn45)ncc3C(=O)NC[C@@H](F)C(C)(C)O)CC2)c1` [Compound 26, 6-(3-cyanopyrrolo[1,2-b]pyridazin-7-yl)-N-((R)-2-fluoro-3-hydroxy-3-methylbutyl)-4-(((1r,4R)-4-(4-methyl-1H-pyrazol-1-yl)cyclohexyl)amino)nicotinamide], for which the EC50 in the assay with TNFα came to 91 nM. In addition, the IC50 against IRAK4 is less than 1 nM.

As for `CC(C)(O)[C@H](F)CNC(=O)c1cnc(-c2ccc3cc(C#N)cnn23)cc1N[C@H]1CC[C@H](c2ccn(C(F)F)n2)CC1` [Compound 8, 6-(3-cyanopyrrolo[1,2-b]pyridazin-7-yl)-4-(((1r,4R)-4-(1-(difluoromethyl)-1H-pyrazol-3-yl)cyclohexyl)amino)-N-((R)-2-fluoro-3-hydroxy-3-methylbutyl)nicotinamide], in the assay on TNFα, the EC50 turned out to be 36 nM. At IRAK4, the IC50 was found to be 1 nM.

With `CC(C)(O)[C@H](F)CNC(=O)c1cnc(-c2ccc3cc(C#N)cnn23)cc1NC12CCC(c3cnco3)(CC1)CC2` [Compound 66, (R)-6-(3-cyanopyrrolo[1,2-b]pyridazin-7-yl)-N-(2-fluoro-3-hydroxy-3-methylbutyl)-4-((4-(oxazol-5-yl)bicyclo[2.2.2]octan-1-yl)amino)nicotinamide], in the assay with TNFα, the EC50 stood at 8 nM. The IC50 against IRAK4 is less than 1 nM.
